Measurements from the supplement of paper PMC5844555.

Legend:
Assay in all cases: 3' UTR reporter interaction score (median-centred robust z-score of log2 firefly/Renilla activity); higher = less repression of the 3' UTR reporter
Settings in all cases: HEK293T; 48 h
BRCA2 = tested on: BRCA2
Method in brief: (§1)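 In at least two independent screens, HEK293T cells in 96-well plates (10,000/well) were co-transfected with DharmaFECT Duo using 100 ng firefly luc2P reporter with the gene's 3' UTR, 20 ng Renilla pRL-TK control and 2.5 pmol miRNA mimic, and dual-luciferase activities were read at 48 h. The interaction score, averaged across screens, is the per-plate robust z-score (median, median absolute deviation) of the log firefly/Renilla ratio, median-centred per miRNA, with more negative indicating interaction.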

FBXW7 = tested on: FBXW7
Method in brief: as §1

MYT1L = tested on: MYT1L
Method in brief: as §1

TP53 = tested on: TP53
Method in brief: as §1

ZEB2 = tested on: ZEB2
Method in brief: as §1

NOTCH1 = tested on: NOTCH1
Method in brief: as §1

MYCN = tested on: MYCN
Method in brief: as §1

MYB = tested on: MYB
Method in brief: as §1

PHF6 = tested on: PHF6
Method in brief: as §1

MYC = tested on: MYC
Method in brief: as §1

HRAS = tested on: HRAS
Method in brief: as §1

RB1 = tested on: RB1
Method in brief: as §1

PHOX2B = tested on: PHOX2B
Method in brief: as §1

EZH2 = tested on: EZH2
Method in brief: as §1

Sequence | 3' UTR reporter interaction score (BRCA2) | 3' UTR reporter interaction score (FBXW7) | 3' UTR reporter interaction score (MYT1L) | 3' UTR reporter interaction score (TP53) | 3' UTR reporter interaction score (ZEB2) | 3' UTR reporter interaction score (NOTCH1) | 3' UTR reporter interaction score (MYCN) | 3' UTR reporter interaction score (MYB) | 3' UTR reporter interaction score (PHF6) | 3' UTR reporter interaction score (MYC) | 3' UTR reporter interaction score (HRAS) | 3' UTR reporter interaction score (RB1) | 3' UTR reporter interaction score (PHOX2B) | 3' UTR reporter interaction score (EZH2)
AAAACGGUGAGAUUUUGUUUU | -0.776 | 0.403 | -0.225 | -0.39 | 0.0197 | -1.23 | 0.148 | 0.737 | -0.604 | 0.0587 | -0.201 | -1.03 | 1.39 | –
AAACCGUUACCAUUACUGAGUUU | 0.378 | -0.543 | 1.68 | 0.812 | 0.377 | -0.371 | -0.445 | – | 0.358 | -0.972 | -0.683 | -0.236 | -1.13 | 0.71
AAAGUGCUGUUCGUGCAGGUAG | -0.619 | 0.872 | -1.47 | 0.803 | -0.0741 | 0.83 | -0.359 | -1.38 | 0.684 | -0.0736 | -0.586 | 0.0538 | 1.63 | –
AAAGUGCUUCCUUUUAGAGGC | -0.921 | 0.555 | -0.527 | 0.32 | 0.738 | – | 0.692 | -0.24 | -0.00693 | -0.277 | -0.194 | 0.31 | 0.798 | -0.74
AAAGUGCUUCUCUUUGGUGGGUU | 0.0116 | 0.685 | -0.567 | 0.499 | 0.955 | 0.392 | – | -0.782 | -0.0534 | -0.26 | 0.266 | 0.799 | 1.31 | -1.56
AACAUUCAUUGCUGUCGGUGGG | 0.08 | 0.243 | -0.567 | 0.443 | 0.114 | -0.249 | – | 0.0638 | 0.159 | 0.124 | -0.854 | 0.0638 | 1.46 | 0.0847
AAUAUAACACAGAUGGCCUGU | -0.646 | 0.647 | -0.827 | 0.139 | -0.625 | 0.989 | – | -0.573 | – | 0.886 | 0.155 | -1.07 | 0.795 | 0.634
AAUUGCACGGUAUCCAUCUGUA | 0.52 | -6.72 | – | -1.12 | -3.51 | -0.751 | 0.653 | 0.44 | 0.891 | 1.4 | 0.777 | 1.19 | -1.97 | -0.862
ACUUUAACAUGGAAGUGCUUUCU | 0.253 | – | 0.13 | 0.121 | -0.795 | -0.363 | -0.0564 | -0.31 | -0.0712 | 0.48 | -0.0142 | – | -0.178 | 0.735
AGAUCAGAAGGUGAUUGUGGCU | 0.117 | 1.15 | – | 0.622 | -0.441 | 0.74 | -0.0131 | -2.02 | 1.45 | -0.231 | 0.462 | -1 | -0.105 | 0.782
AUGUAUAAAUGUAUACACAC | 0.174 | 0.329 | – | 1.38 | -1.04 | -1.28 | -0.0355 | -0.578 | -0.348 | -0.0623 | 0.0947 | -0.33 | 0.0154 | 0.905
CAAGAACCUCAGUUGCUUUUGU | -0.995 | -0.0454 | -0.132 | 0.405 | -1.03 | -0.974 | – | 0.335 | -0.741 | 0.13 | 1.03 | – | -0.954 | 0.928
CACGCUCAUGCACACACCCAC | 0.0228 | -1.61 | 0.0877 | 1.21 | 1.26 | 0.398 | -0.371 | – | -3.04 | 0.38 | – | -0.279 | -1.58 | 0.315
CAGUGCAAUAGUAUUGUCAAAGC | 0.327 | 0.383 | -1.35 | -0.369 | -0.0807 | 1.2 | 0.282 | -1.09 | 1.54 | -0.162 | – | 1.9 | -0.134 | -0.946
CAUUAUUACUUUUGGUACGCG | -0.00235 | 0.0986 | -0.409 | 0.0619 | 0.0582 | -0.00418 | – | 0.454 | -0.223 | -0.4 | 0.225 | 0.974 | 0.437 | 0.119
CUCCUGACUCCAGGUCCUGUGU | 0.612 | -0.332 | – | 0.342 | -1.51 | 0.232 | -0.0476 | 0.427 | -4.57 | 1.1 | 0.32 | 0.546 | -0.0385 | -0.51
GGCAGGUUCUCACCCUCUCUAGG | -0.0484 | -1.49 | -0.84 | -0.0357 | -0.268 | 0.309 | 0.446 | – | -0.606 | 0.583 | 0.517 | – | -1.4 | 0.162
GGUCCAGAGGGGAGAUAGG | -0.441 | -0.103 | 0.466 | 0.186 | -0.0605 | 0.349 | -0.926 | -0.834 | 0.39 | -0.219 | – | -0.274 | -0.69 | -0.024
